This is an account of results in ChEMBL document CHEMBL5136978, “Research progress in pharmacological activities and structure-activity relationships of tetralone scaffolds as pharmacophore and fluorescent skeleton” (Eur J Med Chem, 2022).

The subject of assay [1] is Escherichia coli. Description: Antibacterial activity against Escherichia coli MTCC 443 assessed as bacterial growth inhibition. In kind it is functional.
The subject of the next assay is Staphylococcus aureus. Nature of the assay: Antibacterial activity against Staphylococcus aureus MTCC 096 assessed as bacterial growth inhibition. In kind it is functional.
The test system of the next assay is Aspergillus niger. Nature of the assay: Antifungal activity against Aspergillus niger MTCC 343 assessed as fungal growth inhibition. It is filed as functional.
A further assay concerns A-431. Nature of the assay: Antiproliferative activity against human A-431 cells assessed as cell growth inhibition incubated for 48 hrs by methylene blue staining based colorimetric assay. It is filed as functional. To be noted: A-431, 48 h.
Assay [2] has as its target T1, Peroxisome proliferator-activated receptor gamma (Homo sapiens, UniProt P37231).
T1 sequence (P37231 whole entry): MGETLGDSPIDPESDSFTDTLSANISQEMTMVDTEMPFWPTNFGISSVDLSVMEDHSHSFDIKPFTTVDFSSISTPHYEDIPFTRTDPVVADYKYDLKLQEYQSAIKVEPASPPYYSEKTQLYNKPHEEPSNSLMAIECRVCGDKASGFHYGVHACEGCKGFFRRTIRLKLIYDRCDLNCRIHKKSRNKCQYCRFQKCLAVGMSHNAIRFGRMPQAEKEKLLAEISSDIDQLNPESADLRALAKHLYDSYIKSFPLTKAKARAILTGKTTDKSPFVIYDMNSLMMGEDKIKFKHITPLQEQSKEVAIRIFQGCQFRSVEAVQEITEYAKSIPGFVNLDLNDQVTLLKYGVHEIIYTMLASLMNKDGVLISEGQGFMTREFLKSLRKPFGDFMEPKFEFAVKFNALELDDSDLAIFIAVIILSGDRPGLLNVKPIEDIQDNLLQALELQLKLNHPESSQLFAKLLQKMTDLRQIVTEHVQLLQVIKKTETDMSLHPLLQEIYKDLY
Nature of the assay: Displacement of isotopically-labeled PPAR-gamma (unknown origin) assessed as inhibition constant by competitive inhibition assay.

The species named for a further assay is Homo sapiens. Description: Selectivity index, ratio of IC50 for recombinant human MAO-A to IC50 for recombinant human MAO-B.
Assay [3] addresses T2, Amine oxidase [flavin-containing] B (Homo sapiens, UniProt P27338).
T2 sequence (P27338 whole entry): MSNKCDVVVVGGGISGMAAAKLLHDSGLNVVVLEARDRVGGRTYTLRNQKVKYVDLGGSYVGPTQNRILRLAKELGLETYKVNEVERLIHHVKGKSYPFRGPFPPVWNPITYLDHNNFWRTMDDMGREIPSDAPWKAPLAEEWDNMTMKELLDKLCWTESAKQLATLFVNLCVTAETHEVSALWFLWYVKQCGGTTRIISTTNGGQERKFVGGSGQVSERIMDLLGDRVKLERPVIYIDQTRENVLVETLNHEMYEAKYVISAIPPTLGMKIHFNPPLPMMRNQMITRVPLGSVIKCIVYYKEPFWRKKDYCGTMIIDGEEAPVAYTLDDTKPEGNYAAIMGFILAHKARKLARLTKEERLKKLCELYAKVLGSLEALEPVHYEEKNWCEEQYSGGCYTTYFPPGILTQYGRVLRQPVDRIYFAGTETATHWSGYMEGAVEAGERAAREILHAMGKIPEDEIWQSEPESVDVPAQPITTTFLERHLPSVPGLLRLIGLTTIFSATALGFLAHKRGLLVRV
Nature of the assay: Inhibition of recombinant human MAO-B using kynuramine as substrate by fluorescence spectrophotometry.

Assay [4] concerns the target T3, Amine oxidase [flavin-containing] A (Homo sapiens, UniProt P21397).
T3 sequence (P21397 whole entry): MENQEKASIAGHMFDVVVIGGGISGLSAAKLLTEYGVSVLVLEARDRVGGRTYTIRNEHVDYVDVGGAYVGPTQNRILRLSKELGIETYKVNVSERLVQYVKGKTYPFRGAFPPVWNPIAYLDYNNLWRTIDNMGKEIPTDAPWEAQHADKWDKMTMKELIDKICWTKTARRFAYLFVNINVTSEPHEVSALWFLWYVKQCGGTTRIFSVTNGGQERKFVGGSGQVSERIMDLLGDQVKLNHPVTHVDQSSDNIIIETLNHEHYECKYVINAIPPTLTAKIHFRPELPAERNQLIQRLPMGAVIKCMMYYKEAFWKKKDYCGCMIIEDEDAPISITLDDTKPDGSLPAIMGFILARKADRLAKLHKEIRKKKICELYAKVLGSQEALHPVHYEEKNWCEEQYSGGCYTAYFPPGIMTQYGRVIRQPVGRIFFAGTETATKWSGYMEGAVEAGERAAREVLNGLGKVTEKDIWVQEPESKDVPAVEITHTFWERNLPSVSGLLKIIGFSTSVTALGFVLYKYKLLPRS
Nature of the assay: Inhibition of recombinant human MAO-A using kynuramine as substrate by fluorescence spectrophotometry.

Another assay has as its system KB. Description: Cytotoxicity aginst human KB cells assessed as cell growth inhibition. In kind it is functional, cell-based. To be noted: kb.
The target of assay [5] is T3, Amine oxidase [flavin-containing] A. Description: Inhibition of human MAO-A assessed as measuring amount of 4-hydroxyquinoline using kynuramine as substrate incubated for 20 mins by fluorescence spectrophotometry.
The subject of assay [6] is Mycobacterium tuberculosis. Nature of the assay: Antibacterial activity against Mycobacterium tuberculosis H37Rv assessed as bacterial growth inhibition. It is filed as functional.
For the next assay, the system named is MCF7. Description: Antiproliferative activity against human MCF7 cells assessed as cell growth inhibition measured after 5 days by Coulter counter method. It is filed as functional, cell-based. To be noted: MCF7, 120 h.
The next assay is filed under the species Rattus norvegicus. Nature of the assay: Selectivity index, ratio of Ki for A2AAR in rat striata to Ki for A1AR in rat whole brain.
For assay [7], the target named is Amyloid-beta precursor protein (Homo sapiens) (UniProt P05067). Description: Inhibition of amyloid beta (1 to 42) (unknown origin) self aggregation at 10 uM incubated for 48 hrs by thioflavin-T fluorescence method relative to control.
Sequence of Amyloid-beta precursor protein (Homo sapiens) (P05067 whole entry): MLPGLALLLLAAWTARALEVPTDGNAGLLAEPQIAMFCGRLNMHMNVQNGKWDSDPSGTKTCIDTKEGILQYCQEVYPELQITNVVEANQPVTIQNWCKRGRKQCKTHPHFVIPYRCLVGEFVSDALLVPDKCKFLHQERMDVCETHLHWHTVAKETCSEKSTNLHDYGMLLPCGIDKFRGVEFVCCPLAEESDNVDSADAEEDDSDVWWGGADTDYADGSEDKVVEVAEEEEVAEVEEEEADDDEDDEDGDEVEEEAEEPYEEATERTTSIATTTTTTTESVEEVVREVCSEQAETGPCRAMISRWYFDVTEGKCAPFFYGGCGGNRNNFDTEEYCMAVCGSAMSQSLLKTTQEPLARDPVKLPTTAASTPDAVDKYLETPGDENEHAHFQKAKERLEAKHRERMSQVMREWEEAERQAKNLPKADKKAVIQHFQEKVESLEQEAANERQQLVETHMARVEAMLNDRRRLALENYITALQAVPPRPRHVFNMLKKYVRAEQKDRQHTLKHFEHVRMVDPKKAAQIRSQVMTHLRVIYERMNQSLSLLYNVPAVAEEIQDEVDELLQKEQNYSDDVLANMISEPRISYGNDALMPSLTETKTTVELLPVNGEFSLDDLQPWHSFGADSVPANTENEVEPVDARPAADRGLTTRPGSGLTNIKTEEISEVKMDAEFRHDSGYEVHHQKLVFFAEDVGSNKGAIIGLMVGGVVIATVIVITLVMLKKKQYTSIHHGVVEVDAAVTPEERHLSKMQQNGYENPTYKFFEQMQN
Another assay has as its target Cholinesterase (Homo sapiens, UniProt P06276).
Assay [8] can be described thus: Inhibition of recombinant bovine mitochondrial MAO-B using benzylamine or serotonin as substrate incubated for 60 mins by fluorimetry assay. Set-up: species or system Bos taurus.
Assay [9] has as its target T4, Acetylcholinesterase (Homo sapiens, UniProt P22303). Nature of the assay: Inhibition of AChE (unknown origin) using acetylthiocholine iodide as substrate incubated for 5 mins by Ellman's method. For orientation: DTNB colorimetry detects thiols as they appear.
Assay [10] concerns the target T5, Amine oxidase [flavin-containing] A (Bos taurus, UniProt P21398).
T5 sequence (P21398 whole entry): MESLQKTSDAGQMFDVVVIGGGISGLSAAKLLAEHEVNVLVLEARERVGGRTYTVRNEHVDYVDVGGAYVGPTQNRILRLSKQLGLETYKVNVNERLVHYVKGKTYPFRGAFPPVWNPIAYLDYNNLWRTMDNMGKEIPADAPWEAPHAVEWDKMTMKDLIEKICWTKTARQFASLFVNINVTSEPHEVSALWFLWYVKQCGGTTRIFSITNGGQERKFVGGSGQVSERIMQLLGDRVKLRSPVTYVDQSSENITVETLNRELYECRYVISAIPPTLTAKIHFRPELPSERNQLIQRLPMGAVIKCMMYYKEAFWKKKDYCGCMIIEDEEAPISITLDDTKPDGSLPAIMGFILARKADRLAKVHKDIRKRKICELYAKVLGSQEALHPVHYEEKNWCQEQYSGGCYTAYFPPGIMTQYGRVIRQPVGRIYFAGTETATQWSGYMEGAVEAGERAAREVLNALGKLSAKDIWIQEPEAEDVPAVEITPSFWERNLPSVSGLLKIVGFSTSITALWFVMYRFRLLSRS
Description: Inhibition of recombinant bovine mitochondrial MAO-A using benzylamine or serotonin as substrate incubated for 60 mins by fluorimetry assay

The subject of assay [11] is Escherichia coli. Description: Antibacterial activity against multidrug resistant Escherichia coli MDREC-KG1 clinical isolate assessed as bacterial growth inhibition. It is filed as functional.
The subject of assay [12] is Escherichia coli. Nature of the assay: Antibacterial activity against multidrug resistant Escherichia coli MDREC-EM5 mutant assessed as bacterial growth inhibition. It is filed as functional.
Assay [13] has as its system Escherichia coli. Nature of the assay: Antibacterial activity against multidrug resistant Escherichia coli MDREC-KG4 clinical isolate assessed as bacterial growth inhibition. In kind it is functional.
In assay [14] the test system is Escherichia coli. Nature of the assay: Antibacterial activity against multidrug resistant Escherichia coli MDREC-EM7 mutant assessed as bacterial growth inhibition. It is filed as functional.
The target in assay [15] is T4, Acetylcholinesterase. Nature of the assay: Inhibition of AChE (unknown origin) using […] preincubated for 15 mins by Ellman's method.

Structures are written as SMILES. Values after ≈ are worked out from the molar mass of the structure shown.

T4 sequence (P22303 whole entry): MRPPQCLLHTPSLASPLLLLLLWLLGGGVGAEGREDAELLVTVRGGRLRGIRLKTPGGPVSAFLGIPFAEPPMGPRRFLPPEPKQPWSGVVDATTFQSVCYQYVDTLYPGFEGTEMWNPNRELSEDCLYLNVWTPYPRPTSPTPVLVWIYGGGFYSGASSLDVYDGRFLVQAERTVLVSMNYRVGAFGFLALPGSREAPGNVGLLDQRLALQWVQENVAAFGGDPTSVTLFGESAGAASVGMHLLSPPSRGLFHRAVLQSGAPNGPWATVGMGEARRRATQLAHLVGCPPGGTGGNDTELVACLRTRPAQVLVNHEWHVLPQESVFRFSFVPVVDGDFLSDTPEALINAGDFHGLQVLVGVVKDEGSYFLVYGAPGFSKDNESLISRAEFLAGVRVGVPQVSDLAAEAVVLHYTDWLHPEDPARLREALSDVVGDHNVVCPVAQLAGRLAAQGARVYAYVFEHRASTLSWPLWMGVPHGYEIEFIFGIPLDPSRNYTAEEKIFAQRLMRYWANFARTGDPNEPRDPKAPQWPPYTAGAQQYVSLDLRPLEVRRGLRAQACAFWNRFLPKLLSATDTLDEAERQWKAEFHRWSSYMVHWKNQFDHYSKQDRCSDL
Sequence of Cholinesterase (P06276 whole entry): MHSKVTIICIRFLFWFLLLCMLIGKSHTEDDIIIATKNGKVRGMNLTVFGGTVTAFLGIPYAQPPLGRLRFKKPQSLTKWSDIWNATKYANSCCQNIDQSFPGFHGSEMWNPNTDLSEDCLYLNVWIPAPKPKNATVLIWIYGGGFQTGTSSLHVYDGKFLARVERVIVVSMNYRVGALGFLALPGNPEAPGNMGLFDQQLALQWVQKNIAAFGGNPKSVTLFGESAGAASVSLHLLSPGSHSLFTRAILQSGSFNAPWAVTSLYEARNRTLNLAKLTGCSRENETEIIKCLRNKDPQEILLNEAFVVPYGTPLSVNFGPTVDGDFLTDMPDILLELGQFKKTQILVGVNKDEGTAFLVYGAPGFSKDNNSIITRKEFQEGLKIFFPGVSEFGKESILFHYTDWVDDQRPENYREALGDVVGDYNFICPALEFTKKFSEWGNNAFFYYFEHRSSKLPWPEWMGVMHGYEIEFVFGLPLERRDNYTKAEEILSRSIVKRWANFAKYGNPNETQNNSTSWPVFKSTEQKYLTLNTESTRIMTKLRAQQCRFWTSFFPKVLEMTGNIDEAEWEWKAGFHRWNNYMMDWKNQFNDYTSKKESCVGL

The term MIC denotes the lowest concentration that inhibits growth of the organism. As to `COc1ccc2c(c1)CC[C@@H]1C2=NN(C2=NC(=O)C(C)S2)[C@@H]1c1ccc(Cl)cc1` (stereo partly specified), the minimum inhibitory concentration (MIC) in the assay on Escherichia coli [1], in the assay on Staphylococcus aureus and in the assay on Aspergillus niger was 12.5 µg/mL (≈ 29.3 µM) in each case.
On to `COc1ccc(/C=C2\CCc3ccccc3C2=O)cc1`, for which the IC50 in the assay with A-431 is greater than 20 µM.
As to `COc1ccc2c(c1)CC[C@@H]1C2=NN(C2=NC(=O)C(C)S2)[C@@H]1c1ccccc1` (stereo partly specified), the minimum inhibitory concentration (MIC) with Escherichia coli [1] and in the assay with Staphylococcus aureus was 6.25 µg/mL (≈ 16 µM) throughout.
Take `CC1SC(N2N=C3c4ccccc4CC[C@H]3[C@H]2c2ccccc2)=NC1=O` (stereo partly specified): the MIC in the assay on Escherichia coli [1] and in the assay with Staphylococcus aureus was 6.25 µg/mL (≈ 17.3 µM) in each case.
One may read the Ki as a dissociation constant, usually derived from enzyme kinetics or from competition with a known ligand. In the case of `CC1(C)C=Cc2cc3c(cc2O1)C[C@H](c1ccc(O)cc1)CC3=O`, in assay [2], the inhibitory constant (Ki) worked out at 4.9 µM.
As to `N#Cc1ccc(COc2ccc3c(c2)C(=O)CCC3)cc1`, in the assay filed under Homo sapiens, the Ratio IC50 is 8. Moreover, the IC50 was determined as 0.047 µM in assay [3] and 0.366 µM in assay [4].
For `C[C@@H]1Oc2cccc3c2[C@@H](O1)[C@H](O)CC3=O`, the IC50 with KB came to 1 ppm.
Regarding `COc1ccc2c(c1)C(=O)/C(=C/c1cccnc1Cl)CC2`, the IC50 in [5] turned out to be 1.37 µM.
As for `O=C1/C(=C/c2cccnc2)CCc2ccccc21`, the IC50 with A-431 was less than 10 µM.
Consider `CO[C@H]1CCC(=O)c2cccc(O)c21`, for which, in assay [6], the minimal inhibitory concentration (MIC) was 6.25 µg/mL (≈ 32.5 µM).
For `Oc1ccc2c(c1)CCc1c(-c3ccc(F)cc3)n[nH]c1-2`, the IC50 in the assay on MCF7 was 5.6 µM.
`Cc1ccc(COc2ccc3c(c2)C(=O)CCC3)cc1`: the Ratio IC50 in the assay filed under Homo sapiens is 195.
As for `O=C1/C(=C/c2cccc(O)c2)CCc2c(O)cccc21`, the Ratio Ki in the assay listed under Rattus norvegicus stood at 3.4.
The inhibition is the share of the control response that was lost under treatment. Higher therefore signals a response far below the control. With `CCC1C/C(=C\c2cc(OC)c(OC)c(OC)c2Br)C(=O)c2ccccc21` (stereo unspecified), the inhibition in [7] worked out at 80%. Further, the IC50 against Cholinesterase is 12.5 µM; in assay [8] it was 0.88 µM; on Acetylcholinesterase [9], 0.045 µM; in [10], 0.92 µM.
As to `COc1cc(C(=O)O[C@H]2CCC(=O)c3ccccc32)cc(OC)c1OC` [4-O-(3,4,5-TRIMETHOXYBENZOYL)-ALPHA-TETRALONE], the minimum inhibitory concentration (MIC) with Escherichia coli [11], in the assay with Escherichia coli [12], in the assay with Escherichia coli [13] and in the assay with Escherichia coli [14] was 250 µg/mL (≈ 702 µM) each time.
As for `COc1cc2c(cc1OC)C(=O)C(CC1CCN(Cc3ccccc3)CC1)C2` (stereo unspecified) [DONEPEZIL], the IC50 in assay [10] was found to be 828 µM.
At Acetylcholinesterase [15], `O=C1CCC(O)c2c(O)cccc21` (stereo unspecified) showed an IC50 of 1080 µM.
On to `Cc1cc(O)c2c(c1)C(O)CCC2=O` (stereo unspecified), for which, in [6], the MIC was found to be 100 µg/mL (≈ 520 µM).
